Test results reported in patent US6358883B1, “Pesticidal and parasiticidal use of 1-aryl-1-(substituted thio, sulfinyl and sulfonyl)-2-nitroethane compounds” (American Cyanamid Company, priority 1998, dated 2002).

Key:
Assay type in all cases: in vivo
[1] = tested on: Spodoptera eridania, eggs-southern armyworm (SAW-Eggs); experiment: Southern armyworm eggs (SAW-Eggs) treated diet test; parameters: key: 0 = no effect; 1 = 10-25% kill; 2 = 26-35% kill; 3 = 36-45% kill; 4 = 46-55% kill; 5 = 56-65% kill; 6 = 66-75% kill; 7 = 76-85% kill; 8 = 86-99% kill; 9 = 100% kill; settings: mortality after 7 days
Experimental: (§1) Test solutions are prepared by dissolving the test compound in a 35% acetone in water mixture to give a concentration of 10,000 ppm. Subsequent dilutions are made with water as needed. Spodoptera eridania, Eggs-southern Armyworm and Diabrotica undecimpunctata howardi, Eggs-southern Corn Rootworm (SAW-Eggs) and (SCR-Eggs) Wells containing artificial diet are treated with the test solutions and dried. The appropriate insect eggs are then placed in the wells. The wells are covered with vented, adhesive, clear plastic covers. After 7 days, mortality counts are made. [table]

[2] = tested on: M. incognita (Root Knot Nematode) larvae; experiment: Evaluation of test compounds against M. incognita larvae in microtiter plate wells (movement score); settings: larvae scored for movement after 20-24 hours; note: key: A score of '9' indicates inactive worms with a straight, sticklike morphology; A score of '8' indicates inactive worms with a limp, curled or curved morphology; A score of '7' indicates dead/paralyzed worms after 72 hours
Procedure, shortened: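 Newly emerged M. incognita larvae in S Medium (buffered salt solution), 50-65 worms per well, exposed to test compounds in sealed microtiter wells. Movement scored after 20-24 h incubation; wells with obviously dead/paralyzed larvae scored positive. A score of "7" denotes dead/paralyzed worms after […].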

[3] = tested on: Tetranychus urticae (OP-resistant strain), 2-spotted spider mite (TSM); experiment: 2-spotted spider mite (TSM) plant dip test; parameters: key: 0 = no effect; 1 = 10-25% kill; 2 = 26-35% kill; 3 = 36-45% kill; 4 = 46-55% kill; 5 = 56-65% kill; 6 = 66-75% kill; 7 = 76-85% kill; 8 = 86-99% kill; 9 = 100% kill; settings: mortality after 2 days
Procedure, shortened: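 OP-resistant mites (~100 per leaf) were transferred onto Sieva lima bean primary leaves about 2 h before treatment. Infested plants were dipped for 3 s in compound from a 10,000 ppm stock in 35% acetone/water, diluted with water. Mortality was counted after 2 days.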

[4] = tested on: Aphis gossypii, cotton aphid (CA); experiment: Cotton aphid (CA) cotyledon dip test; parameters: key: 0 = no effect; 1 = 10-25% kill; 2 = 26-35% kill; 3 = 36-45% kill; 4 = 46-55% kill; 5 = 56-65% kill; 6 = 66-75% kill; 7 = 76-85% kill; 8 = 86-99% kill; 9 = 100% kill; settings: mortality after 5 days
Procedure, shortened: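 Cotyledon-stage cotton plants infested overnight via a heavily infested leaf, then dipped in test solution (compound in 35% acetone/water, diluted with water) and dried. Mortality counted after 5 days.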

[5] = tested on: Diabrotica undecimpunctata howardi, eggs-southern corn rootworm (SCR-Eggs); experiment: Southern corn rootworm eggs (SCR-Eggs) treated diet test; parameters: key: 0 = no effect; 1 = 10-25% kill; 2 = 26-35% kill; 3 = 36-45% kill; 4 = 46-55% kill; 5 = 56-65% kill; 6 = 66-75% kill; 7 = 76-85% kill; 8 = 86-99% kill; 9 = 100% kill; settings: mortality after 7 days
Experimental: as §1

[6] = tested on: Diabrotica virgifera virgifera Leconte, 2nd instar western corn rootworm (WCR); experiment: Western corn rootworm (WCR) soil test; parameters: key: 0 = no effect; 1 = 10-25% kill; 2 = 26-35% kill; 3 = 36-45% kill; 4 = 46-55% kill; 5 = 56-65% kill; 6 = 66-75% kill; 7 = 76-85% kill; 8 = 86-99% kill; 9 = 100% kill
Procedure, shortened: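 Compound in 35% acetone/water applied to talc at 1.25 mg active ingredient per jar (about 50 kg/ha), solvent evaporated, then mixed with millet seed and moist soil. Ten 2nd-instar larvae per jar; mortality counted after 5 days, missing larvae scored dead.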

[7] = tested on: Spodoptera eridania, 2nd instar larvae, southern armyworm (SAW); experiment: Southern armyworm (SAW) leaf dip test; parameters: key: 0 = no effect; 1 = 10-25% kill; 2 = 26-35% kill; 3 = 36-45% kill; 4 = 46-55% kill; 5 = 56-65% kill; 6 = 66-75% kill; 7 = 76-85% kill; 8 = 86-99% kill; 9 = 100% kill
Procedure, shortened: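 Compound is dissolved at 10,000 ppm in 35% acetone/water, then diluted with water. Lima bean leaves are dipped for 3 seconds, dried and placed with ten 2nd instar larvae on damp filter paper. Mortality, reduced feeding and molting interference are scored at 5 days.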

[8] = tested on: C. elegans (Bristol strain); experiment: Evaluation of test compounds against C. elegans (motility, 96-well plate); parameters: key: 9=complete kill in 4 hours; 8=complete kill in 24 hours; 7=markedly reduced motility in approximately 95% of worms in 24 hours; 0=normal motility, same as controls; settings: motility at 4 and 24 hours
Procedure, shortened: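 Bristol-strain C. elegans in Na buffer added to wells containing dried compound (applied in 80% acetone) and incubated at 20 °C. Motility of adults and larvae scored subjectively but semi-quantitatively under a dissecting microscope at 4 and 24 h after immersion, plates tapped before reading.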

SMILES | SAW Eggs (300 ppm) rating [1] | M. incognita (150 ppm) score [2] | TSM (300 ppm) rating [3] | CA (300 ppm) rating [4] | SCR Eggs (1000 ppm) rating [5] | WCR (50 ppm) rating [6] | SAW (300 ppm) rating [7] | Rating Against C. elegans (150 ppm) [8]
CCCOC(=O)CSC(C[N+](=O)[O-])c1ccco1 (centres unmarked) [Example 199] | 9 (9 = 100% kill) | 9 | 0 | 0 | 0 | 8 (8 = 86-99% kill) | 0 | 
O=[N+]([O-])CC(SCc1ccccc1)c1cc(Br)cs1 (centres unmarked) [Example 195] | 0 |  | 0 | 0 | 0 | 0 | 0 | 
O=[N+]([O-])CC(SCc1ccccc1)c1cccs1 (centres unmarked) [Example 188] | 0 | 9 | 0 | 0 | 0 | 3 (3 = 36-45% kill) | 0 | 
O=C(O)CSC(C[N+](=O)[O-])c1cc(Br)cs1 (centres unmarked) [Example 190] | 0 |  | 0 | 0 | 0 | 0 | 0 | 
CCOC(=O)CSC(C[N+](=O)[O-])c1cccs1 (centres unmarked) [Example 183] | 0 | 9 | 0 | 0 | 0 | 0 | 0 | 
O=C(O)CSC(C[N+](=O)[O-])c1cccs1 (centres unmarked) [Example 181] | 9 (9 = 100% kill) | 9 | 0 | 0 | 0 | 0 | 0 | 
O=[N+]([O-])CC(SCc1ccccc1)c1ccc(F)cc1 (centres unmarked) [Example 13] | 0 | 0 | 0 | 7 (7 = 76-85% kill) |  | 0 | 0 | 8
CCCCC(CC)COC(=O)CSC(C[N+](=O)[O-])c1ccc(F)cc1 (centres unmarked) [Example 12] | 0 | 0 | 0 | 0 |  | 0 | 0 | 0
CCCSC(C[N+](=O)[O-])c1ccco1 (centres unmarked) [Example 201] | 0 | 0 | 0 | 0 | 0 | 7 (7 = 76-85% kill) | 0 | 
COC(=O)CSC(C[N+](=O)[O-])c1ccco1 (centres unmarked) [Example 197] | 9 (9 = 100% kill) | 9 | 0 | 5 (5 = 56-65% kill) | 0 | 0 | 0 | 
C=CCSC(C[N+](=O)[O-])c1ccco1 (centres unmarked) [Example 202] | 9 (9 = 100% kill) | 0 | 0 | 0 | 0 | 9 (9 = 100% kill) | 0 | 
O=C(O)CSC(C[N+](=O)[O-])c1ccco1 (centres unmarked) [Example 196] | 0 | 9 | 0 | 0 | 0 | 9 (9 = 100% kill) | 0 | 
O=C(O)CSC(C[N+](=O)[O-])c1cccnc1 (centres unmarked) [Example 179] | 0 | 9 | 0 | 0 | 0 | 0 | 0 | 
CCOC(=O)CSC(C[N+](=O)[O-])c1ccco1 (centres unmarked) [Example 198] | 9 (9 = 100% kill) | 9 | 0 | 0 | 0 | 7 (7 = 76-85% kill) | 0 | 
C=CCSC(C[N+](=O)[O-])c1cccs1 (centres unmarked) [Example 187] | 0 | 9 | 0 | 0 | 0 | 0 | 0 | 
CCCCOC(=O)CSC(C[N+](=O)[O-])c1cc(Br)cs1 (centres unmarked) [Example 194] | 0 |  | 0 | 0 | 0 | 0 | 0 | 
CCOC(=O)CSC(C[N+](=O)[O-])c1cc(Br)cs1 (centres unmarked) [Example 192] | 0 |  | 0 | 0 | 0 | 0 | 0 | 
CCOC(=O)CSC(C[N+](=O)[O-])c1ccc(F)cc1 (centres unmarked) [Example 16] | 0 | 9 | 0 | 0 |  | 0 | 0 | 8
CCCOC(=O)CSC(C[N+](=O)[O-])c1cc(Br)cs1 (centres unmarked) [Example 193] | 0 |  | 0 | 0 | 0 | 0 | 0 | 
CCOC(=O)CSC(C[N+](=O)[O-])c1ccccc1 (centres unmarked) [Example 6] | 0 | 9 | 0 | 0 |  | 7 (7 = 76-85% kill) | 0 | 8
COC(=O)CSC(C[N+](=O)[O-])c1ccc(F)cc1 (centres unmarked) [Example 15] | 0 | 9 | 0 | 0 |  | 3 (3 = 36-45% kill) | 0 | 9
CC(C)CCCCCOC(=O)CSC(C[N+](=O)[O-])c1ccccc1 (centres unmarked) [Example 8] | 0 | 0 | 0 | 0 |  | 0 | 0 | 0
COC(=O)CSC(C[N+](=O)[O-])c1cc(Br)cs1 (centres unmarked) [Example 191] | 0 |  | 0 | 0 | 0 | 0 | 0 | 
